Test results from patent US10844118B2, “Treatment of inflammatory skin disease” (CHILDREN'S MEDICAL CENTER CORPORATION, priority 2013, dated 2020).
“Also recorded” adds a separate entry of the source. Each block holds one compound with its values, some of them ahead of it.

Key:
CD1a [1] = target: T1, CD1a (Homo sapiens, UniProt P06126); test: imiquimod (IMQ) psoriasis model in CD1a-transgenic mice; assay type: in vivo, mouse; design: expressed in transfected cells; host or cells: CD1a-transgenic mice (compared with wild-type B6 mice)
Source text: Therefore, we subsequently investigated whether CD1a also plays an important role in psoriasis. For this purpose, we used a well-established model applying the small molecule imiquimod (IMQ) to the skin of mice, which induces psoriasis-like pathology after 3-6 days of daily administration. Strikingly, CD1a-transgenic mice responded with extensive ear swelling when compared to WT controls (FIG. 5A).
In order to test whether anti-CD1a therapy is able to abrogate skin inflammation in psoriasis, we performed IMQ treatment of mice and administered anti-CD1a antibody in parallel as described above. […] Of note, anti-CD1a therapy blocked the infiltration of IL-17 producing CD4 T cells.

CD1a [2] = target: T1, CD1a; test: MC903-induced atopic dermatitis model in CD1a-transgenic mice; assay type: in vivo; design: expressed in transfected cells; host or cells: CD1a-transgenic mice (compared with wild-type B6 mice); conditions: MC903 daily on ears, CD1a-transgenic mice compared to WT B6 controls
Source text: Atopic dermatitis is an inflammatory skin disease characterized by itchy and relapsing eczematous skin lesions. It affects approximately 30% of children and 10% of adults, costing up to $3.8 billion annually in the United States. The cause of atopic dermatitis remains unclear, and there is no cure available. Recently, it has been reported that IL-22-producing CD4 T cells are associated with initiation and progression of atopic dermatitis. Therefore, it is worthwhile to test whether anti-CD1a therapy can be extended to atopic dermatitis. For this purpose, we set up a mouse model of atopic dermatitis applying MC903 (calcipotriol, Vitamin D analogue) daily on the ears of experimental mice, which triggers atopic dermatitis-like skin inflammation characterized by red, scaly, and eczematous lesions. […] Furthermore, anti-CD1a Ab injection suppressed ear swelling and granulocyte infiltration in CD1a-transgenic mice.
The inventors tested the contribution of CD1a presence in MC903-induced atopic dermatitis. The vitamin D3 analogue MC903 was used to induce AD-like symptoms in wild-type (WT-B6) mice, CD1a transgenic mice, and CD1a transgenic mice that were treated with an anti-CD1a Ab. For CD1a blocking, 200 μg of anti-CD1a Ab was intraperitoneally injected into CD1a-transgenic mice every other day (−1, +1, +3, +5, and +7 days before and after MC903 treatment).

CD1a-transgenic mice = test: DNFB hapten sensitization and challenge in CD1a-transgenic mice; assay type: in vivo
Source text: Finally, we wanted to examine whether CD1a-transgenic mice are generally prone to increased inflammatory responses. To this end, we treated mice with the well-established hapten DNFB (dinitrofluorobenzene). FIG. 7A depicts the skin sensitization and challenge schedule used for DNFB and urushiol application. […] It is well known that haptens like DNFB induce a prominent IFN-γ response, as we observed in WT mice (FIG. 7D). […] By contrast, the classical delayed type hypersensitivity (DTH) response to DNFB was rather decreased in the presence of CD1a. This underlines the specific nature of CD1a function in urushiol-induced contact dermatitis and psoriasis.

CD1a [3] = target: T1, CD1a; test: OCTET Bio-Layer Interferometry CD1a-lipid ligand binding assay; conditions: recombinant CD1a coupled to a biosensor, incubated with lipid ligand
Source text: In order to develop a small molecule inhibitor against CD1a, a CD1a binding assay as a platform can be used to test potential inhibitors from a chemical compound library. For this purpose, we have already established a read-out using the OCTET machine (from FORTEBIO) to measure the molecular interaction between CD1a and lipid ligands with high sensitivity. […] However, the great advantage of the OCTET is its straightforward assay set-up, and that it is amenable to high throughput screening using a 384-well plate format. Accordingly, we use recombinant CD1a molecules coupled to a biosensor, prior to incubation with the known lipid ligand sulfatide. […] In a next step, use pools of small organic molecules derived from a chemical compound library are tested by adding them to the CD1a-sulfatide binding assay. Subsequently, one can measure whether a small molecule candidate is able to inhibit the interaction between CD1a and its ligand.

CD1a [4] = target: T1, CD1a; test: plate-bound binding assay, purified urushiol and recombinant CD1a; conditions: plate coated with lipid, biotinylated CD1a, streptavidin-peroxidase; compared to positive control sulfatide
Source text: Central to our invention is the discovery that CD1a expressed on Langerhans cells is able to mediate skin inflammation through the induction of CD1a-restricted T cells. Accordingly, T cells stimulated by CD1a produce inflammatory cytokines such as interferon (IFN) gamma and IL-17 that facilitate the development of inflammatory skin disease (FIG. 1A). The CD1a-mediated mechanism holds true for diverse skin diseases, including poison ivy contact dermatitis as well as psoriasis. […] For this purpose, we performed a plate-bound binding assay, using purified urushiol and recombinant CD1a. After coating the microtiter plates with urushiol or the known CD1a ligand sulfatide as positive control, plates were washed and subsequently incubated with biotinylated CD1a. Following incubation with streptavidin-peroxidase and the respective chromogenic enzyme substrate, optical density was measured indicating binding efficiency. […] Thus, urushiol from poison ivy is a ligand for CD1a.

CD1a [5] = target: T1, CD1a; test: urushiol-induced contact dermatitis (poison ivy) in CD1a-transgenic mice; assay type: in vivo, mouse; design: expressed in transfected cells; host or cells: CD1a-transgenic mice (compared with wild-type B6 mice)
Source text: Next, we wanted to explore the function of CD1a in the in vivo response to urushiol. However, CD1a is mainly expressed in humans, and absent in experimental mice. Therefore, in vivo studies investigating CD1a function were not possible in the past. Therefore, we used mice transgenic for human CD1a to overcome that obstacle. FIG. 2A depicts the experimental set-up to investigate the skin immune response to poison ivy. Accordingly, CD1a-transgenic mice compared to wild-type (WT) mice were sensitized with urushiol on the abdomen following the epicutaneous route. Five days later, mice were challenged on the ear skin, prior to harvesting of inflamed ears and draining lymph nodes 48 h after challenge. […] Subsequently, we isolated the inflammatory cells from the ears, using in vitro enzyme digestion of ear tissues, prior to staining for neutrophils and T lymphocyte subsets.
In parallel, we also determined the cytokine profile of the T cells infiltrating the inflamed skin. Accordingly, we performed intracellular cytokine staining for IFN-γ, IL-17, and IL-22, prior to analysis by flow cytometry. […] IL-17 is known to mediate the recruitment of neutrophils, and IL-22 acts on epithelial cells to trigger their hyperproliferation, both cardinal features of skin inflammation.
Based on our findings that CD1a promotes skin inflammation, we next aimed at developing a therapeutic strategy to target CD1a in order to abrogate skin disease. To this end, we used an experimental blocking antibody to CD1a for intraperitoneal injection of mice. The treatment schedule included five injections of 100 μg anti-CD1a starting one day prior to sensitization with urushiol and followed by injections every other day until challenge and tissue harvest. […] To control for the efficiency of antibody treatment, we stained ear cells for CD1a, the crucial surface marker of Langerhans cells. […] Moreover, we investigated the impact of anti-CD1a treatment on the abundance of IL-17-producing CD4 T cells (also called Th17 cells). […] Taken together, we provide the proof of principle that anti-CD1a therapy abrogates skin inflammation.

[6] = intracellular cytokine staining, flow cytometry

- ear swelling (CD1a [1]; IMQ on skin, CD1a-transgenic mice compared to WT controls): extensive
- Gr-1+CD11b+ neutrophils and αβ T cells in the skin, flow cytometry (CD1a [1]; IMQ, CD1a-transgenic mice): dramatic increase
Compound: CC(C)Cn1cnc2c(N)nc3ccccc3c21 [imiquimod]
- cytokine profile of inflammatory T cells (CD1a [1]; IMQ, CD1a-transgenic mice): mainly consisted of CD4 T cells producing IL-17 and IL-22

- Gr1+CD11b+ granulocyte infiltration (CD1a [2]): significantly amplified
- ear swelling (CD1a [2]): significantly amplified
Compound: C=C1/C(=C\C=C2/CCC[C@]3(C)[C@@H]([C@H](C)/C=C/[C@@H](O)C4CC4)CC[C@@H]23)C[C@@H](O)C[C@@H]1O [MC903, calcipotriol]

Compound: O=[N+]([O-])c1ccc(F)c([N+](=O)[O-])c1 [DNFB, 2,4,-dinitro-1-fluorobenzene]
- T cell-derived IFN-γ (CD1a-transgenic mice; CD1a-transgenic animals, response biased towards IL-17): significantly reduced
- abundance of inflammatory granulocytes, flow cytometry (CD1a-transgenic mice; CD1a-transgenic mice): strikingly reduced
- ear swelling (inflammation) (CD1a-transgenic mice; CD1a-transgenic mice, in contrast to poison ivy challenge): reduction
- IFN-γ response (CD1a-transgenic mice; WT mice): prominent

- binding curves, molecular interaction with CD1a (CD1a [3]): sensitive and specific binding curves
Compound: sulfatide

Compound: urushiol
- binding to CD1a (optical density) (CD1a [4]): specific binding; also recorded: interacts as a ligand
- ear swelling (ear thickness) (CD1a [5]; 2 days after urushiol challenge, CD1a-transgenic mice compared to WT controls): drastically increased
- CD4+αβ T cells in urushiol-challenged skin (CD1a [5]; CD1a-dependent fashion): expanded
- frequency of Th17 cells (CD1a [5]; CD1a-transgenic mice challenged with urushiol): drastically increased
- IFN-γ response of T cells infiltrating the inflamed skin (CD1a [5]; [6]): failed to induce
- cytokine profile of T cells responding to challenge (CD1a [5]; [6]): mainly produced the cytokines IL-17 and IL-22
- neutrophil infiltration (Gr-1, CD11b), flow cytometry (CD1a [5]; urushiol-challenged ears, CD1a-transgenic mice vs WT): striking increase
